Test results taken from PubChem BioAssay AID2060624 (Molecular Pharmacology Branch, DTP, NCI, 2025).

System: 217524-143-R1-J4-PDC spheroids with HUVEC/MSC, viability
Test: Anticancer human tumor 217524-143-R1-J4-PDC patient-derived pancreatic carcinoma cell line growth inhibition [CLK]
Details: for IC50: curve of first compound; for viability, T/C: stronger effect = lower value
Procedure, shortened: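 Multi-cell-type spheroids combined patient-derived tumor cells with HUVEC endothelial cells and human mesenchymal stem cells. Paired agents were dosed in half-log steps down from about clinical Cmax, or from 10 microM where Cmax was unknown.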

[1] = second compound 0.0316 µM, first compound 0.0316 µM
[2] = second compound 0.0316 µM, first compound 0.1 µM
[3] = second compound 0.1 µM, first compound 0.0316 µM
[4] = second compound 0.1 µM, first compound 0.1 µM
[5] = second compound 0.316 µM, first compound 0.0316 µM
[6] = second compound 0.316 µM, first compound 0.1 µM
[7] = second compound 1 µM, first compound 0.0316 µM
[8] = second compound 1 µM, first compound 0.1 µM
[9] = second compound 3.16 µM, first compound 0.0316 µM
[10] = second compound 3.16 µM, first compound 0.1 µM
[11] = second compound 10 µM, first compound 0.0316 µM
[12] = second compound 10 µM, first compound 0.1 µM
[13] = second compound 0.0316 µM, first compound 0.316 µM
[14] = second compound 0.0316 µM, first compound 1 µM
[15] = second compound 0.0316 µM, first compound 3.16 µM
[16] = second compound 0.0316 µM, first compound 10 µM
[17] = second compound 0.1 µM, first compound 0.316 µM
[18] = second compound 0.1 µM, first compound 1 µM
[19] = second compound 0.1 µM, first compound 3.16 µM
[20] = second compound 0.1 µM, first compound 10 µM
[21] = second compound 0.316 µM, first compound 0.316 µM
[22] = second compound 0.316 µM, first compound 1 µM
[23] = second compound 0.316 µM, first compound 3.16 µM
[24] = second compound 0.316 µM, first compound 10 µM
[25] = second compound 1 µM, first compound 0.316 µM
[26] = second compound 1 µM, first compound 1 µM
[27] = second compound 1 µM, first compound 3.16 µM
[28] = second compound 1 µM, first compound 10 µM
[29] = second compound 3.16 µM, first compound 0.316 µM
[30] = second compound 3.16 µM, first compound 1 µM
[31] = second compound 3.16 µM, first compound 3.16 µM
[32] = second compound 3.16 µM, first compound 10 µM
[33] = second compound 10 µM, first compound 0.316 µM
[34] = second compound 10 µM, first compound 1 µM
[35] = second compound 10 µM, first compound 3.16 µM
[36] = second compound 10 µM, first compound 10 µM
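Also: spheroids exposed to agents for seven days before reading.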
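For viability, T/C in this document: 100% = DMSO vehicle control viability.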

Work on `Cn1ncnc1[C@H]1c2n[nH]c(=O)c3cc(F)cc(c23)N[C@@H]1c1ccc(F)cc1` + CN1CCN(c2cc(C(=O)Nc3cc4cc(-c5cnn(C)c5)ccc4cn3)ccn2)CC1 yielded an IC50 (second compound 0.0316 µM) of over 0.1 µM, an IC50 (second compound 0.1 µM) of 0.00171 µM and an IC50 (second compound 0.316 µM) of under 0.000316 µM. It also gave an IC50 (second compound 1 µM) of under 0.000316 µM, an IC50 (second compound 3.16 µM) of under 0.000316 µM and an IC50 (second compound 10 µM) of under 0.000316 µM. It also gave a viability, T/C (second compound 0.0316 µM, first compound 0.000316 µM) of 80.5%, a viability, T/C (second compound 0.0316 µM, first compound 0.001 µM) of 71% and a viability, T/C (second compound 0.0316 µM, first compound 0.00316 µM) of 61.8%. For the same molecule, the viability, T/C (second compound 0.0316 µM, first compound 0.01 µM) was 65.4%, the viability, T/C [1] was 84.7% and the viability, T/C [2] was 60.3%. For the same molecule, the viability, T/C (second compound 0.1 µM, first compound 0.000316 µM) was 54.1%, the viability, T/C (second compound 0.1 µM, first compound 0.001 µM) was 48.5% and the viability, T/C (second compound 0.1 µM, first compound 0.00316 µM) was 50.8%. The viability, T/C (second compound 0.1 µM, first compound 0.01 µM) was 43.5%, the viability, T/C [3] was 50.1% and the viability, T/C [4] was 42.8%. It also gave a viability, T/C (second compound 0.316 µM, first compound 0.000316 µM) of 21.2%, a viability, T/C (second compound 0.316 µM, first compound 0.001 µM) of 23.4% and a viability, T/C (second compound 0.316 µM, first compound 0.00316 µM) of 18.8%. For the same molecule, the viability, T/C (second compound 0.316 µM, first compound 0.01 µM) was 17.7%, the viability, T/C [5] was 18.8% and the viability, T/C [6] was 17.2%. It also gave a viability, T/C (second compound 1 µM, first compound 0.000316 µM) of 1.28%, a viability, T/C (second compound 1 µM, first compound 0.001 µM) of 1.4% and a viability, T/C (second compound 1 µM, first compound 0.00316 µM) of 1.52%. It also gave a viability, T/C (second compound 1 µM, first compound 0.01 µM) of 1.16%, a viability, T/C [7] of 1.67% and a viability, T/C [8] of 1.12%. The viability, T/C (second compound 3.16 µM, first compound 0.000316 µM) was 0.67%, the viability, T/C (second compound 3.16 µM, first compound 0.001 µM) was 0.66% and the viability, T/C (second compound 3.16 µM, first compound 0.00316 µM) was 0.75%. The viability, T/C (second compound 3.16 µM, first compound 0.01 µM) was 0.62%, the viability, T/C [9] was 0.71% and the viability, T/C [10] was 0.48%. It also gave a viability, T/C (second compound 10 µM, first compound 0.000316 µM) of 0.16%, a viability, T/C (second compound 10 µM, first compound 0.001 µM) of 0.26% and a viability, T/C (second compound 10 µM, first compound 0.00316 µM) of 0.15%. The viability, T/C (second compound 10 µM, first compound 0.01 µM) was 0.25%, the viability, T/C [11] was 0.18% and the viability, T/C [12] was 0.17%.

`Nc1ccn(C2OC(CO)C(O)C2(F)F)c(=O)n1` (stereo unspecified) + CN1CCN(c2cc(C(=O)Nc3cc4cc(-c5cnn(C)c5)ccc4cn3)ccn2)CC1 showed an IC50 (second compound 0.0316 µM) of 0.0432 µM, an IC50 (second compound 0.1 µM) of under 0.0316 µM and an IC50 (second compound 0.316 µM) of under 0.0316 µM. The IC50 (second compound 1 µM) was under 0.0316 µM, the IC50 (second compound 3.16 µM) was under 0.0316 µM and the IC50 (second compound 10 µM) was under 0.0316 µM. For the same molecule, the viability, T/C [1] was 60.1%, the viability, T/C [2] was 22.9% and the viability, T/C [13] was 20.5%. It also gave a viability, T/C [14] of 19.9%, a viability, T/C [15] of 24.1% and a viability, T/C [16] of 22.6%. The viability, T/C [3] was 36%, the viability, T/C [4] was 22.9% and the viability, T/C [17] was 16.1%. For the same molecule, the viability, T/C [18] was 16.9%, the viability, T/C [19] was 18.9% and the viability, T/C [20] was 17.9%. The viability, T/C [5] was 15.4%, the viability, T/C [6] was 10.9% and the viability, T/C [21] was 11.6%. For the same molecule, the viability, T/C [22] was 9.15%, the viability, T/C [23] was 13.3% and the viability, T/C [24] was 10.8%. The viability, T/C [7] was 1.8%, the viability, T/C [8] was 1.09% and the viability, T/C [25] was 1.22%. The viability, T/C [26] was 1.31%, the viability, T/C [27] was 1.04% and the viability, T/C [28] was 1.02%. It also gave a viability, T/C [9] of 0.72%, a viability, T/C [10] of 0.59% and a viability, T/C [29] of 0.75%. For the same molecule, the viability, T/C [30] was 0.76%, the viability, T/C [31] was 0.87% and the viability, T/C [32] was 0.72%. It also gave a viability, T/C [11] of 0.2%, a viability, T/C [12] of 0.2% and a viability, T/C [33] of 0.21%. For the same molecule, the viability, T/C [34] was 0.25%, the viability, T/C [35] was 0.24% and the viability, T/C [36] was 0.22%.

`O=c1[nH]cc(F)c(=O)[nH]1` + CN1CCN(c2cc(C(=O)Nc3cc4cc(-c5cnn(C)c5)ccc4cn3)ccn2)CC1 was tested, and the IC50 (second compound 0.0316 µM) was 0.505 µM, the IC50 (second compound 0.1 µM) was 0.196 µM and the IC50 (second compound 0.316 µM) was under 0.0316 µM. For the same molecule, the IC50 (second compound 1 µM) was under 0.0316 µM, the IC50 (second compound 3.16 µM) was under 0.0316 µM and the IC50 (second compound 10 µM) was under 0.0316 µM. For the same molecule, the viability, T/C [1] was 78.1%, the viability, T/C [2] was 74.9% and the viability, T/C [13] was 46.5%. It also gave a viability, T/C [14] of 49.6%, a viability, T/C [15] of 30.2% and a viability, T/C [16] of 28.1%. It also gave a viability, T/C [3] of 59.5%, a viability, T/C [4] of 57.5% and a viability, T/C [17] of 45.2%. The viability, T/C [18] was 32.4%, the viability, T/C [19] was 29% and the viability, T/C [20] was 21.7%. It also gave a viability, T/C [5] of 21.9%, a viability, T/C [6] of 23.4% and a viability, T/C [21] of 21.2%. For the same molecule, the viability, T/C [22] was 16.1%, the viability, T/C [23] was 15.7% and the viability, T/C [24] was 13.4%. The viability, T/C [7] was 1.26%, the viability, T/C [8] was 1.5% and the viability, T/C [25] was 1.42%. For the same molecule, the viability, T/C [26] was 1.31%, the viability, T/C [27] was 1.3% and the viability, T/C [28] was 1.65%. The viability, T/C [9] was 0.71%, the viability, T/C [10] was 0.91% and the viability, T/C [29] was 0.78%. The viability, T/C [30] was 0.61%, the viability, T/C [31] was 0.63% and the viability, T/C [32] was 0.59%. For the same molecule, the viability, T/C [11] was 0.15%, the viability, T/C [12] was 0.14% and the viability, T/C [33] was 0.15%. The viability, T/C [34] was 0.13%, the viability, T/C [35] was 0.18% and the viability, T/C [36] was 0.19%.
